# Read-outs that look alike come from different tables or passages of the source.
# How the values were obtained:
# CCRF-CEM = assay: NCI-60 SRB growth inhibition, one-dose and five-dose; assay type: cell-based; details: Homo sapiens
# K-562 = assay: as above; assay type: cell-based; details: Homo sapiens
# EKVX = assay: as above; assay type: cell-based; details: Homo sapiens
# HOP-62 = assay: as above; assay type: cell-based; details: Homo sapiens
# HOP-92 = assay: as above; assay type: cell-based; details: Homo sapiens
# NCI-H226 = assay: as above; assay type: cell-based; details: Homo sapiens
# NCI-H23 = assay: as above; assay type: cell-based; details: Homo sapiens
# NCI-H322M = assay: as above; assay type: cell-based; details: Homo sapiens
# NCI-H460 = assay: as above; assay type: cell-based; details: Homo sapiens
# NCI-H522 = assay: as above; assay type: cell-based; details: Homo sapiens
# COLO 205 = assay: as above; assay type: cell-based; details: Homo sapiens
# HCC-2998 = assay: as above; assay type: cell-based; details: Homo sapiens
# HCT-116 = assay: as above; assay type: cell-based; details: Homo sapiens
# HCT-15 = assay: as above; assay type: cell-based; details: Homo sapiens
# HT29 = assay: as above; assay type: cell-based; details: Homo sapiens
# KM12 = assay: as above; assay type: cell-based; details: Homo sapiens
# SF-268 = assay: as above; assay type: cell-based; details: Homo sapiens
# SNB-75 = assay: as above; assay type: cell-based; details: Homo sapiens
# U251 = assay: as above; assay type: cell-based; details: Homo sapiens
# LOX IMVI = assay: as above; assay type: cell-based; details: Homo sapiens
# MALME-3M = assay: as above; assay type: cell-based; details: Homo sapiens
# M14 = assay: as above; assay type: cell-based; details: Homo sapiens
# SK-MEL-2 = assay: as above; assay type: cell-based; details: Homo sapiens
# SK-MEL-28 = assay: as above; assay type: cell-based; details: Homo sapiens
# SK-MEL-5 = assay: as above; assay type: cell-based; details: Homo sapiens
# UACC-62 = assay: as above; assay type: cell-based; details: Homo sapiens
# IGROV1 = assay: as above; assay type: cell-based; details: Homo sapiens
# OVCAR-3 = assay: as above; assay type: cell-based; details: Homo sapiens
# OVCAR-4 = assay: as above; assay type: cell-based; details: Homo sapiens
# OVCAR-5 = assay: as above; assay type: cell-based; details: Homo sapiens
# NCI/ADR-RES = assay: as above; assay type: cell-based; details: Homo sapiens
# SK-OV-3 = assay: as above; assay type: cell-based; details: Homo sapiens
# 786-0 = assay: as above; assay type: cell-based; details: Homo sapiens
# A498 = assay: as above; assay type: cell-based; details: Homo sapiens
# ACHN = assay: as above; assay type: cell-based; details: Homo sapiens
# TK-10 = assay: as above; assay type: cell-based; details: Homo sapiens
# PC-3 = assay: as above; assay type: cell-based; details: Homo sapiens
# MCF7 = assay: as above; assay type: cell-based; details: Homo sapiens
# HS 578 T = assay: as above; assay type: cell-based; details: Homo sapiens
# BT-549 = assay: as above; assay type: cell-based; details: Homo sapiens
# T-47D = assay: as above; assay type: cell-based; details: Homo sapiens, T47D
# [1] = tested on: NCI 60-cell line panel (full panel); assay: NCI-60 SRB growth inhibition, full panel mean / MG-MID; assay type: cell-based, human; details: for GI50: Homo sapiens, 60 cell
# [2] = read-out: percent growth inhibition
smiles,measurement,setting,value
"COc1ccc(CNc2cccc(C(=O)/C=C/c3ccc(NC(C)=O)cc3)c2)cc1OC [Compound 5h, (E)-N-(4–(3-(3-((3,4-dimethoxybenzyl)amino)phenyl)-3-oxoprop-1-en-1-yl)phenyl) acetamide]",GI50,CCRF-CEM,2.74 µM
same,inhibition at 10 µM,CCRF-CEM; [2],84.5%
same,GI50,K-562; K562,2.5 µM
same,inhibition at 10 µM,"K-562; K562, read-out: percent growth inhibition",92.2%
same,GI50,EKVX,4.09 µM
same,inhibition at 10 µM,EKVX; [2],94.9%
same,GI50,HOP-62; HOP-62,7.25 µM
same,inhibition at 10 µM,"HOP-62; HOP-62, read-out: percent growth inhibition",62.3%
same,GI50,HOP-92; HOP-92,4.02 µM
same,inhibition at 10 µM,"HOP-92; HOP-92, read-out: percent growth inhibition",65.8%
same,GI50,NCI-H226; NCI-H226,12.4 µM
same,inhibition at 10 µM,"NCI-H226; NCI-H226, read-out: percent growth inhibition",21.2%
same,GI50,NCI-H23; NCI-H23,4.26 µM
same,inhibition at 10 µM,"NCI-H23; NCI-H23, read-out: percent growth inhibition",105%
same,GI50,NCI-H322M,13.6 µM
same,inhibition at 10 µM,NCI-H322M; [2],32%
same,GI50,NCI-H460; NCI-H460,2.1 µM
same,inhibition at 10 µM,"NCI-H460; NCI-H460, read-out: percent growth inhibition",143%
same,GI50,NCI-H522; NCI-H522,8.85 µM
same,inhibition at 10 µM,"NCI-H522; NCI-H522, read-out: percent growth inhibition",150%
same,GI50,COLO 205; COLO 205,9.39 µM
same,inhibition at 10 µM,"COLO 205; COLO 205, read-out: percent growth inhibition",145%
same,GI50,HCC-2998; HCC 2998,3.3 µM
same,inhibition at 10 µM,"HCC-2998; HCC 2998, read-out: percent growth inhibition",176%
same,GI50,"HCT-116; HCT-116, HCT-116 (colon cancer), five-dose assay",1.95 µM
same,GI50,"HCT-116; HCT-116, HCT-116, five-dose screening",0.78 µM
same,inhibition at 10 µM,"HCT-116; HCT-116, read-out: percent growth inhibition",174%
same,GI50,HCT-15; HCT-15,1.8 µM
same,inhibition at 10 µM,"HCT-15; HCT-15, read-out: percent growth inhibition",125%
same,GI50,HT29; HT-29,3.46 µM
same,inhibition at 10 µM,"HT29; HT-29, read-out: percent growth inhibition",172%
same,GI50,KM12; KM12,1.94 µM
same,inhibition at 10 µM,"KM12; KM12, read-out: percent growth inhibition",159%
same,GI50,SF-268; SF-268,3.01 µM
same,inhibition at 10 µM,"SF-268; SF-268, read-out: percent growth inhibition",64%
same,GI50,SNB-75; SNB-75,10.1 µM
same,inhibition at 10 µM,"SNB-75; SNB-75, read-out: percent growth inhibition",62.8%
same,GI50,U251; U-251,2.88 µM
same,inhibition at 10 µM,"U251; U-251, read-out: percent growth inhibition",150%
same,GI50,LOX IMVI,1.8 µM
same,inhibition at 10 µM,LOX IMVI; [2],181%
same,GI50,MALME-3M,3.5 µM
same,inhibition at 10 µM,MALME-3M; [2],151%
same,GI50,M14; M14,1.72 µM
same,inhibition at 10 µM,"M14; M14, read-out: percent growth inhibition",142%
same,GI50,SK-MEL-2; SK-MEL-2,10.6 µM
same,inhibition at 10 µM,"SK-MEL-2; SK-MEL-2, read-out: percent growth inhibition",53.7%
same,GI50,SK-MEL-28; SK-MEL-28,2.82 µM
same,inhibition at 10 µM,"SK-MEL-28; SK-MEL-28, read-out: percent growth inhibition",108%
same,GI50,SK-MEL-5; SK-MEL-5,4.13 µM
same,inhibition at 10 µM,"SK-MEL-5; SK-MEL-5, read-out: percent growth inhibition",126%
same,GI50,UACC-62; UACC-62,3.9 µM
same,inhibition at 10 µM,"UACC-62; UACC-62, read-out: percent growth inhibition",130%
same,GI50,IGROV1; IGROV-1,4.54 µM
same,inhibition at 10 µM,"IGROV1; IGROV-1, read-out: percent growth inhibition",96.8%
same,GI50,OVCAR-3; OVCAR-3,2.28 µM
same,inhibition at 10 µM,"OVCAR-3; OVCAR-3, read-out: percent growth inhibition",114%
same,GI50,OVCAR-4; OVCAR-4,3.09 µM
same,inhibition at 10 µM,"OVCAR-4; OVCAR-4, read-out: percent growth inhibition",89.4%
same,GI50,OVCAR-5; OVCAR-5,4.53 µM
same,inhibition at 10 µM,"OVCAR-5; OVCAR-5, read-out: percent growth inhibition",84.1%
same,GI50,NCI/ADR-RES,2.86 µM
same,GI50,SK-OV-3; SK-OV-3,20 µM
same,inhibition at 10 µM,"SK-OV-3; SK-OV-3, read-out: percent growth inhibition",75.5%
same,GI50,786-0; 786-0,1.57 µM
same,inhibition at 10 µM,"786-0; 786-0, read-out: percent growth inhibition",155%
same,GI50,A498; A498,13.7 µM
same,inhibition at 10 µM,"A498; A498, read-out: percent growth inhibition",11.5%
same,GI50,ACHN,2.07 µM
same,inhibition at 10 µM,ACHN; [2],162%
same,GI50,TK-10; TK-10,4.09 µM
same,inhibition at 10 µM,"TK-10; TK-10, read-out: percent growth inhibition",60.7%
same,GI50,PC-3; PC-3,2.81 µM
same,inhibition at 10 µM,"PC-3; PC-3, read-out: percent growth inhibition",85%
same,GI50,MCF7; MCF7,2.54 µM
same,inhibition at 10 µM,"MCF7; MCF7, read-out: percent growth inhibition",119%
same,GI50,HS 578 T,3.07 µM
same,inhibition at 10 µM,HS 578 T; [2],99.1%
same,GI50,BT-549; BT-549,1.54 µM
same,inhibition at 10 µM,"BT-549; BT-549, read-out: percent growth inhibition",126%
same,GI50,T-47D,5.04 µM
same,inhibition at 10 µM,T-47D; [2],104%
same,GI50,[1]; read-out: Full panel GI50 mean,4.48 µM
same,GI50,[1]; read-out: Full panel MG-MID GI50,4.48 µM
same,Full panel Mean GI %,"[1]; mean over NCI-60 panel, single dose 10 µM",108.5%
